The target in the assay is T1, GPR40 (Homo sapiens, UniProt O14842).
T1 construct: expressed in transfected cells; host or cells: CHO-K1
The experiment in a line: GPR40 agonist activity, FLIPR calcium assay in CHO-K1/GPR40 cells. It counts as cell-based. The procedure: Inoculate CHO-K1/GPR40 cells in 384-well plates at a density of 10,000 cells/well. Cells were incubated at 37° C. for 24 hours in a 5% CO2 incubator. After the experiment, discard the cell culture medium, quickly add […] of 1× FLIPR® Calcium 6 dye containing 2.5 mM/Probenecid to each well and incubate at 37° C. for 2 hours protected from light. For the determination, different concentrations of drug ([…]) were added to the wells and the fluorescence values were read. The fluorescence excitation wavelength was 494 nm and emission wavelength was 516 nm. FLIPR instrument data, EC50 was derived from the formula Y=Bottom+(Top−Bottom)/(1+(EC50/X)^HillSlope).

Where [1] appears, read: GPR40 agonist activity range (EC50), CHO-K1/GPR40 cells, read-out: GPR40 activity.

Where two headings read alike, the source gives them in different places.

T1 sequence (O14842 whole entry): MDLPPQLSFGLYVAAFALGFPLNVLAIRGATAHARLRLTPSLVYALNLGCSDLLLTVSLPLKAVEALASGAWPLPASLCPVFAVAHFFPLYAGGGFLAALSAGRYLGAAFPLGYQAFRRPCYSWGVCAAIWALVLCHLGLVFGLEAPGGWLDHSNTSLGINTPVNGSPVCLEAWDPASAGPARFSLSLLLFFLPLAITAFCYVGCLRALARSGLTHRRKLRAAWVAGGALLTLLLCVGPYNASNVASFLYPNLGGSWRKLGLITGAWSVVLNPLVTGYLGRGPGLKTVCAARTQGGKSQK

On to `CC1(C)Oc2cc(Br)cc(COc3ccc4c(c3)OCC4CC(=O)O)c2O1` (stereo not shown) [IIb-22], for which the EC50 under setting [1] is greater than 100 nM.
On the same count and under the same terms, next, `O=C(O)CC1COc2cc(OCc3cccc4c3OC(F)(F)O4)c(Cl)cc21` (stereo not shown) [IIb-28]: greater than 100 nM.
For the molecule `O=C(O)CC1CCc2cc(OCc3cccc4c3OC(F)(F)O4)ccc21` (stereo not shown) [IIb-61], the EC50 under setting [1] lay within 10 to 100 nM.
In the case of `O=C(O)CC1COc2cc(OCc3cc(Br)cc4c3OC(F)(F)O4)ccc21` (stereo not shown) [IIb-21], the EC50 under setting [1] fell in the range of 10 to 100 nM.
On to `O=C(O)C(Br)C1COc2cc(OCc3cccc4c3OC(F)(F)O4)ccc21` (stereo not shown) [IIb-30], for which the EC50 under setting [1] was greater than 100 nM.
On to `O=C(O)CC1COc2cc(OCc3cccc4c3OC(F)(F)O4)c(F)cc21` (stereo not shown) [IIb-29], for which, under setting [1], the EC50 was greater than 100 nM.
On the same count and under the same terms, with `O=C(O)CC1COc2cc(OCc3ccc(Br)c4c3OCO4)ccc21` (stereo not shown) [IIb-16] the figure was greater than 100 nM; with `O=C(O)CC1COc2cc(OCc3cc(Cl)cc4c3OCO4)ccc21` (stereo not shown) [IIb-05], 10 to 100 nM.
As to `O=C(O)C(F)C1COc2cc(OCc3cc(Cl)cc4c3OCO4)ccc21` (stereo not shown) [IIb-58], the EC50 under setting [1] lay within 10 to 100 nM.
Same read-out and setting: with `O=C(O)CC1COc2c1cc(Br)c(OCc1cccc3c1OC(F)(F)O3)c2Br` (stereo not shown) [IIb-27] the figure was greater than 100 nM.
Still for that read-out and setting: with `O=C(O)CC1COc2cc(OCc3c(F)ccc4c3OCO4)ccc21` (stereo not shown) [IIb-13] the figure was greater than 100 nM; with `CC(C)(C)NC(=O)Nc1cc(COc2ccc3c(c2)OC[C@H]3CC(=O)O)c2c(c1)OCO2` [IIb-49], greater than 100 nM.
Turning to `O=C(O)C(O)C1COc2cc(OCc3cccc4c3OC(F)(F)O4)ccc21` (stereo not shown) [IIb-32], under setting [1], the EC50 was greater than 100 nM.
The same measure, in the same setting: with `O=C(O)C(F)C1COc2cc(OCc3cc(F)cc4c3OCO4)ccc21` (stereo not shown) [IIb-57] the figure was 10 to 100 nM; with `CC(C)(CC(=O)O)c1ccc(OCc2cc(F)cc3c2OCO3)cc1` [IIb-36], greater than 100 nM; with `CC(C)S(=O)(=O)Nc1cc(COc2ccc3c(c2)OC[C@H]3CC(=O)O)c2c(c1)OCO2` [IIb-51], greater than 100 nM.
The same measure, in the same setting: with `Cc1cc(OCCCS(C)(=O)=O)cc(C)c1-c1cc(COc2ccc3c(c2)OC[C@H]3CC(=O)O)c2c(c1)OCO2` [IIb-38] the figure was 10 to 100 nM.
`CC(C)(C)OC(=O)Nc1cc(COc2ccc3c(c2)OC[C@H]3CC(=O)O)c2c(c1)OC(F)(F)O2` [IIb-46]: the EC50 was less than 10 nM under setting [1] and less than 10 nM (read-out: GPR40 activity (EC50)).
As to `O=C(O)CC1COc2cc(OCc3cccc4c3OC(F)(F)O4)c(Br)cc21` (stereo not shown) [IIb-26], under setting [1], the EC50 was greater than 100 nM.
Consider `COc1cc(COc2ccc3c(c2)OC[C@H]3CC(=O)O)c2c(c1)OCO2` [IIb-45], for which the EC50 under setting [1] was greater than 100 nM.
As for `O=C(O)CC1COc2cc(OCc3c(Br)ccc4c3OCO4)ccc21` (stereo not shown) [IIb-03], the EC50 under setting [1] is greater than 100 nM.
On the same count and under the same terms, next, `O=C(O)CC1COc2cc(OCc3cc(Br)cc4c3OCCO4)ccc21` (stereo not shown) [IIb-09]: greater than 100 nM; `O=C(O)C(F)C1COc2cc(OCc3cccc4c3OC(F)(F)O4)ccc21` (stereo not shown) [IIb-33]: 10 to 100 nM; `O=C(O)CC1COc2cc(OCc3ccc(Cl)c4c3OC(F)(F)O4)ccc21` (stereo not shown) [IIb-24]: greater than 100 nM.
Take `O=C(O)C(F)(F)C1COc2cc(OCc3cc(Cl)cc4c3OCO4)ccc21` (stereo not shown) [IIb-39]: under setting [1], the EC50 is greater than 100 nM.
Regarding `COC(=O)Nc1cc(COc2ccc3c(c2)OC[C@H]3CC(=O)O)c2c(c1)OCO2` [IIb-47], the EC50 under setting [1] was greater than 100 nM.
In the case of `Nc1cc(COc2ccc3c(c2)OC[C@H]3CC(=O)O)c2c(c1)OCO2` [IIb-44], under setting [1], the EC50 was greater than 100 nM.
In the case of `O=C(O)C[C@@H]1COc2cc(OCc3cc(NC(=O)OC4CCCC4)cc4c3OCO4)ccc21` [IIb-48], the EC50 under setting [1] fell in the range of 10 to 100 nM.
The same measure, in the same setting: next, `CC1(C)Oc2cccc(COc3ccc4c(c3)OCC4CC(=O)O)c2O1` (stereo not shown) [IIb-20]: 10 to 100 nM; `CC#CC(CC(=O)O)c1ccc(OCc2cc(NC(=O)OC(C)(C)C)cc3c2OC(F)(F)O3)cc1` (stereo not shown) [IIb-64]: 10 to 100 nM; `O=C(O)CC1COc2cc(OCc3cccc4c3OCO4)ccc21` (stereo not shown) [IIb-01]: greater than 100 nM.
The same measure, in the same setting: next, `O=C(O)CC1COc2cc(OCc3cccc4c3OC(F)(F)O4)ccc21` (stereo not shown) [IIb-17]: 10 to 100 nM.
The same measure, in the same setting: with `O=C(O)CC1COc2cc(OCc3ccc(F)c4c3OCO4)ccc21` (stereo not shown) [IIb-12] the figure was greater than 100 nM; with `O=C(O)C[C@@H]1COc2cc(OCc3cc(OC(F)(F)F)cc4c3OCO4)ccc21` [IIb-52], greater than 100 nM.
Take `O=C(O)C[C@@H]1COc2cc(OCc3cc(C(F)(F)F)cc4c3OCO4)ccc21` [IIb-53]: the EC50 under setting [1] fell in the range of 10 to 100 nM.
Turning to `CC#CC(CC(=O)O)c1ccc(OCc2cccc3c2OC(F)(F)O3)cc1` (stereo not shown) [IIb-62], the EC50 under setting [1] fell in the range of 10 to 100 nM.
The same measure, in the same setting: next, `CN(C)c1cc(COc2ccc3c(c2)OC[C@H]3CC(=O)O)c2c(c1)OCO2` [IIb-41]: greater than 100 nM.
Regarding `N#Cc1cc(COc2ccc3c(c2)OCC3CC(=O)O)c2c(c1)OCO2` (stereo not shown) [IIb-15], under setting [1], the EC50 lay within 10 to 100 nM.
Still for that read-out and setting: next, `O=C(O)C[C@@H]1COc2cc(OCc3cc(Cl)cc4c3OC(F)(F)O4)ccc21` [IIb-56]: 10 to 100 nM; `O=C(O)CC1COc2cc(OCc3cc(Cl)cc4c3OC(F)(F)O4)ccc21` (stereo not shown) [IIb-23]: 10 to 100 nM; `O=C(O)C[C@@H]1COc2cc(OCc3cc(C(F)(F)F)cc4c3OC(F)(F)O4)ccc21` [IIb-54]: 10 to 100 nM.
For the molecule `CC(C)(C)C(=O)Nc1cc(COc2ccc3c(c2)OC[C@H]3CC(=O)O)c2c(c1)OCO2` [IIb-50], under setting [1], the EC50 was greater than 100 nM.
Take `O=C(O)CC1(c2ccc(OCc3cc(F)cc4c3OCO4)cc2)OCCO1` [IIb-37]: the EC50 under setting [1] is greater than 100 nM.
As to `O=C(O)CC1COc2cc(OCc3cc(C(F)(F)F)cc4c3OCO4)ccc21` (stereo not shown) [IIb-14], the EC50 under setting [1] was in the range of 10 to 100 nM.
On the same count and under the same terms, with `O=C(O)CC1COc2cc(OCc3cc(F)cc4c3OCCO4)ccc21` (stereo not shown) [IIb-11] the figure was greater than 100 nM.
The same measure, in the same setting: next, `O=C(O)C[C@@H]1COc2cc(OCc3cc(F)cc4c3OCO4)ccc21` [IIb-07]: 10 to 100 nM; `CC(C)(C)OC(=O)Nc1cc(COc2ccc3c(c2)OCC3C(F)C(=O)O)c2c(c1)OCO2` (stereo not shown) [IIb-59]: 10 to 100 nM; `O=C(O)CC1COc2cc(OCc3c(Br)ccc4c3OCCO4)ccc21` (stereo not shown) [IIb-08]: greater than 100 nM.
For the molecule `O=C(O)CC1COc2cc(OCc3ccc4c(c3)OCO4)ccc21` (stereo not shown) [IIb-04], the EC50 under setting [1] was 10 to 100 nM.
On to `O=C(O)C(F)(F)C1COc2cc(OCc3cccc4c3OC(F)(F)O4)ccc21` (stereo not shown) [IIb-34], for which the EC50 under setting [1] was greater than 100 nM.
On the same count and under the same terms, with `O=C(O)C[C@@H]1COc2cc(OCc3cc(F)cc4c3OC(F)(F)O4)ccc21` [IIb-55] the figure was 10 to 100 nM; with `O=C(O)CC1COc2cc(OCc3cc(F)cc4c3OCO4)ccc21` (stereo not shown) [IIb-06], 10 to 100 nM.
On the same count and under the same terms, with `O=C(O)CC1COc2cc(OCc3cc(Cl)cc4c3OCCO4)ccc21` (stereo not shown) [IIb-10] the figure was greater than 100 nM; with `O=C(O)CC1COc2cc(OCc3cccc4c3OCCO4)ccc21` (stereo not shown) [IIb-19], greater than 100 nM.
Same read-out and setting: with `O=C(O)C[C@@H]1COc2cc(OCc3cc(I)cc4c3OCO4)ccc21` [IIb-40] the figure was 10 to 100 nM; with `CN(C)c1ccc2c(c1COc1ccc3c(c1)OC[C@H]3CC(=O)O)OCO2` [IIb-42], greater than 100 nM; with `O=C(O)CC1COc2cc(OCc3cc(Br)cc4c3OCO4)ccc21` (stereo not shown) [IIb-02], greater than 100 nM.
For `O=C(O)CC1CCc2cc(OCc3cc(F)cc4c3OCO4)ccc21` (stereo not shown) [IIb-35], the EC50 under setting [1] lay in the range of 10 to 100 nM.
Still for that read-out and setting: next, `NC(C(=O)O)C1COc2cc(OCc3cccc4c3OC(F)(F)O4)ccc21` (stereo not shown) [IIb-31]: greater than 100 nM; `CC(C)(C)OC(=O)Nc1cc(COc2ccc3c(c2)CCC3CC(=O)O)c2c(c1)OC(F)(F)O2` (stereo not shown) [IIb-63]: 10 to 100 nM.

The record behind these values is patent publication US20230339919A1, “BENZO OXYGEN-CONTAINING HETEROCYCLIC COMPOUNDS AND MEDICAL APPLICATION THEREOF” (AB PHARMA LTD., priority 2020, published 2023).
